Where a name gives a salt, the structure may show the parent alone.

Assay [1] has as its target muscarinic cholinergic receptor. Put plainly: [3H] Quinuclinyl Benzilate (3H-QNB) Binding Assay. The note with it: pH 7.4. Also on record: species or system rat.
Assay [2] relates to postsynaptic cholinergic. The note with it: cited from earlier work.
The test system of assay [3] is presynaptic cholinergic. To be noted: cited from earlier work.
In assay [4] the target is high affinity agonist conformation of the muscarinic cholinergic receptor. Put plainly: [3H]-Cis-methyldioxolane (3H-CD) Binding Assay (High Affinity). To be noted: rat cerebral cortex, 1.0 nM 3H-CD, 25° C., 120 minutes, pH 7.4.
Assay [5] has as its system SDAT patients. The note with it: versus anticholinesterase inhibitor physostigmine; cited from earlier work.
Setting [6] is: rat cerebral cortex, 0.25 nM 3H-QNB, 25° C., 120 minutes, hydrochloride.
[7] abbreviates: rat cerebral cortex, 0.25 nM 3H-QNB, 25° C., 120 minutes.

Take `CN(C)CC#Cc1cncs1` [N,N-Dimethyl-3-(5-thiazolyl)-2-propyn-1-amine, hydrochloride]: in assay [1] (setting [6]), the IC50 (commonly the midpoint of a concentration-inhibition curve) amounted to 482 µM. For the compound `CC(=O)N(C)C(C)C#CCN1CCCC1` (stereo not shown) [BM-5, N-methyl-N-(1-methyl-4-pyrrolidino-2-butynyl) acetamide], in assay [2], the postsynaptic cholinergic activity result is given as “postsynaptic partial cholinergic agonist”. Further, in assay [3], the presynaptic cholinergic activity result is listed as “presynaptic cholinergic antagonist”.

Consider `CN(C)CC#Cc1cscn1` [--N, --N-Dimethyl-3-(4-thiazoyl)-2-propyn-1-amine] [N,N-Dimethyl-3-(4-thiazoyl)-2-propyn-1-amine], for which the IC50 amounted to 19 µM in assay [4] and 381 µM in assay [1] (setting [7]). In the same order, the values of `C(#Cc1cncs1)CN1CCCC1` [5-[3-(1-Pyrrolidinyl)-1-propynyl]thiazole] are 0.245 µM and 73 µM. The matching figures for `C(#Cc1cscn1)CN1CCCC1` [4-[3-(1-Pyrrolidinyl)-1-propynyl]thiazole]: 3.95 µM and 71 µM. `C(#Cc1nccs1)CN1CCCCC1` [1-[3-(2-Thiazolyl)-2-propynyl]piperidine]: the half-maximal inhibitory concentration (IC50) in assay [4] came out at 10.2 µM; in assay [1] (setting [7]), 182 µM. The matching figures for `CN(C)CC#Cc1cscn1` [--N, --N-Dimethyl-3-(4-thiazolyl)-2-propyn-1-amine] [N,N-Dimethyl-3-(4-thiazolyl)-2-propyn-1-amine]: 12.9 µM and 504 µM. Regarding `C(#Cc1nccs1)CN1CCCC1` [2-[3-(1-Pyrrolidinyl)-1-propynyl]thiazole], the IC50 in assay [4] is 1.43 µM; in assay [1] (setting [7]), 44 µM. The matching figures for `C[N+](C)(C)CC#Cc1cncs1` [N,N,N-Trimethyl-3-(5-thiazolyl)-2-propyn-1-aminium iodide]: 0.273 µM and 131 µM.

`Cl/C(=C/c1nccs1)CN1CCCCC1` [1-[2-Chloro-3-(2-thiazolyl)-2-propenyl]piperidine,(E)]: the half-maximal inhibitory concentration (IC50) was determined as 6.59 µM in assay [4] and 117 µM in assay [1] (setting [7]).

Turning to “1-[3-(5-Thiazolyl)-2-propenyl]piperidine”, the results for the IC50 in assay [4] and in assay [1] (setting [7]) were 12.6 µM and 164 µM, respectively.

For `Cl/C(=C/c1nccs1)CN1CCCC1` [2-[2-Chloro-3-(1-pyrrolidinyl)-1-propenyl]thiazole,(E)], the half-maximal inhibitory concentration (IC50) worked out at 2.23 µM in assay [4] and 186 µM in assay [1] (setting [7]). The matching figures for `CN(C)CC#Cc1cncs1` [N,N-Dimethyl-3-(5-thiazolyl)-2-propyn-1-amine]: 3.38 µM and 765 µM. Turning to `C[N+](C)(C)CC#Cc1cscn1` [N,N,N-Trimethyl-3-(4-thiazolyl)-2-propyn-1-aminium, iodide], the 50% inhibitory concentration (IC50) was found to be 1.46 µM in assay [4] and 119 µM in assay [1]. The matching figures for `C[N+](C)(C)CC#Cc1nccs1` [N,N,N-Trimethyl-3-(2-thiazolyl)-2-propyn-1-aminium iodide]: 0.673 µM and 123 µM. As for `CN(C)C/C(Cl)=C\c1nccs1` [2-Chloro-N,N-dimethyl-3-(2-thiazolyl)-2-propen-1-amine,(E)], the IC50 in assay [4] was 1.07 µM; in assay [1] (setting [7]) it was 222 µM. The matching figures for `C(#Cc1cscn1)CN1CCCCC1` [1-[3-(4-Thiazolyl)-2-propynyl]piperidine]: 28.1 µM and 124 µM. With `C(#Cc1cscn1)CN1CCCCC1` [1-[3-(4-Thiazolyl)-2-propynyl]piperidine, hydrochloride], the IC50 stood at 14 µM in assay [4] (hydrochloride) and 114 µM in assay [1] (setting [6]).

In assay [1] (setting [7]), `Br/C(=C/c1nccs1)CN1CCCC1` [2-[2-Bromo-3-(1-pyrrolidinyl)-1-propenyl]thiazole,(E)] returned an IC50 of 90 µM.

`COC(=O)C1=CCCN(C)C1` [arecoline]: the “improvement when compared to physostigmine” value in assay [5] is listed as “more-consistent improvement”. Regarding `C(#Cc1cncs1)CN1CCCCC1` [1-[3-(5-Thiazolyl)-2-propynyl]piperidine, hydrochloride], the figures for the IC50 in assay [4] and in assay [1] (setting [7]) were 0.658 µM and 119 µM, respectively.

`CN(C)CC#Cc1nccs1` [N,N-Dimethyl-3-(2-thiazolyl)-2-propyn-1-amine]: the IC50 came to 9.98 µM in assay [4] and 1310 µM in assay [1] (setting [7]).

As to `C(#Cc1cncs1)CN1CCCC1` [5-[3-(1-Pyrrolidinyl)-1-propynyl] thiazole] [5-[3-(1-Pyrrolidinyl)-1-propynyl]thiazole], the IC50 in assay [4] was determined as 4.7 µM; in assay [1] (setting [7]), 115 µM.

(Values after patent US4990520A, “2-,4- or 5-substituted thiazole derivatives” (American Cyanamid Company, priority 1990, dated 1991).)
